Data reported in US9604947B2, “Substituted 5-imino-1,2,4-thiadiazoles that can be used to treat neurodegenerative diseases” (CONSEJO SUPERIOR DE INVESTIGACIONES CIENTIFICAS (CSIC), priority 2009, dated 2017).

Legend:
in vitro = details: PAMPA
Protocol: Ten commercial reference drugs, phosphate buffer saline solution at pH 7.4 (PBS), DMSO and dodecane were purchased from Sigma, Acros organics, Aldrich and Fluka. […] Filter PDVF membrane units (diameter 30 mm, pore size 0.45 μm) from Symta were used to filtered the samples. A 96-well plate UV reader (Thermoscientific, Multiskan spectrum) was used for the UV measurements. […] These solutions were filtered. The acceptor 96-well microplate was filled with 180 μL of PBS:DMSO (95:5). The donor 96-well plate was coated with 4 μL of porcine brain lipid in dodecane (20 mg mL^−1) and after 5 minutes, 180 μL of each compound solution was added. 1-2 mg of every compound to be determined their ability to pass the BBB were dissolved in 250 μL of DMSO and 4750 μL of PBS pH 7.4 buffer, filtered and then added to the donor 96-well plate. Then the donor plate was carefully put on the acceptor plate to form a “sandwich”, which was left undisturbed for 4 h at 25° C.
During this time the compounds diffused from the donor plate through the brain lipid membrane into the acceptor plate. After incubation, the donor plate was removed. The concentration of compounds and commercial drugs in the acceptor and the donor wells was determined by UV plate reader. Every sample was analyzed from three to five wavelengths, in 3 wells and in at least three independent runs. […] 11 quality control compounds (previously mentioned) of known BBB permeability were included in each experiment to validate the analysis set.

PDE7A1 = target: T1, PDE7A1 (Homo sapiens, UniProt Q13946); test: Determination of PDE7 inhibition (SPA, [3H]cAMP); format: biochemical; details: 1,2,4-thiadiazoles-5-imino substituted as hydrobromides; read-out: IC50 (PDE7A)
T1 construct: purchased Calbiochem 524751
Protocol: PDE-7 inhibition was performed with a commercial kit for the determination of phosphodiesterase activity (GE Healthcare Life Sciences, cat#TRKQ7090).
The compounds to be evaluated were incubated (in concentrations between 0.1 nM and 100 μM) in presence of 0.02 U/well of PDE7A1 (Calbiochem cat#524751) and 0.05 μCi of [^3H] cAMP, for 20 min at 30° C. in the assay buffer of kit (total volume=100 μl).
After this time, 50 μl of a suspension of 20 mg/ml microspheres of SPA of Ytrium silicate were added and was maintained under stirring at room temperature for 60 min. Finally, the plate was settled for 20 min and radioactivity was detected in a Microbeta Trilux reader.
In every assay there were included two points without PDE7A1 (blank) and two points with PDE7A1 without inhibitors (control).
Data Analysis: All the compounds were evaluated firstly at the concentration of 10 μM and the percentage of PDE7A1 inhibition was calculated, according to the following formula (cpm=counts per minute): % Inhibition=((cpm control−cpm sample)×100)/(cpm control−cpm blank assay).
For those compounds with % inhibition values above 45% it was calculated its inhibitory potency (IC50) building the dose-response curve.
The data were adjusted with the software Prism v 2.1 (GraphPad Software) using the non lineal fitting.

T1 sequence (Q13946 whole entry): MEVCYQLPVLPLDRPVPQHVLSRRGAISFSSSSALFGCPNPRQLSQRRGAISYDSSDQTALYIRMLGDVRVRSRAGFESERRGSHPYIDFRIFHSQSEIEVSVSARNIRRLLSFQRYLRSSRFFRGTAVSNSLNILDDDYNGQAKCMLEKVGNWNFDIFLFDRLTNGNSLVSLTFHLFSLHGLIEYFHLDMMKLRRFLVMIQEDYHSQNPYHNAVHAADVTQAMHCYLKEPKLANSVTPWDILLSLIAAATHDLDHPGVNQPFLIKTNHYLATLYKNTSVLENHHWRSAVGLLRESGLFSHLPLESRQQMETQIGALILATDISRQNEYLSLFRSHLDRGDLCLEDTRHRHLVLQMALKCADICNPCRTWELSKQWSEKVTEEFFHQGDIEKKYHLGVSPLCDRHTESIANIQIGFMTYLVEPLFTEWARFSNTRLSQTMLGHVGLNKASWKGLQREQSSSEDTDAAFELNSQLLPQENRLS

Prediction (predictive penetration in the CNS) (in vitro): CNS+ | Papp at 4 h (in vitro; pH 7.4): 4.4 ± 0.6 ×10⁻⁶ cm/s | IC50 (PDE7A1): 860 nM
SMILES: Br.Br.COc1ccc(-c2nc(=NCc3cccnc3)sn2-c2ccccc2)cc1 [VP-1.43, 3-(4-Methoxyphenyl)-2-phenyl-5-(3-pyridylmethylimino)-2,5-dihydro-1,2,4-thiadiazole dihydrobromide]
